Laboratory results reported in patent US12071426B2, “IRE1 small molecule inhibitors” (Cornell University, priority 2018, dated 2024).

How the values were obtained:
IRE1a [1] = target: T1, IRE1a (Homo sapiens, UniProt O75460); assay: In vitro FRET assay (XBP1 RNA probe cleavage); format: biochemical; settings: SignalChem IRE1a protein 2 nM, fluorescence 485/515 nm
Procedure: In vitro FRET assay was performed to evaluate the ability of select compounds to inhibit IRE1, the results of which are summarized in Table 3. To perform the in vitro FRET assay, 1× complete assay buffer (CAB; […], 50 mM sodium citrate pH 7.15, 1 mM magnesium acetate, 0.02% tween 20) was used to dilute SignalChem IRE1a protein to a final concentration of 2 nM. Selected compounds were serially diluted with DMSO in a non-binding black 384-well plate for a total of 15 ul in each well. 2 ul of the serially diluted compound or DMSO control were then added to new wells containing 98 ul of 1× CAB, for a total volume of 100 ul, 10 ul of which were then transferred to wells of a new plate. 5 ul of the diluted IRE1a was then added to each well. 5 ul of a […] XBP1 RNA probe was then added to each well. Fluorescence was then read over 30 minutes in kinetic mode (485/515 nm).
Two RNA probes were used, XBP1 wildtype (SEQ ID NO: 2) which is able to be spliced by active IRE1a or XBP1 mutant (SEQ ID NO: 3) which is unable to be spliced. Each probe contained a 5′ 6-FAM modification and a 3′ IOWA Black FQ modification.
A second FRET assay was performed to assess ATP-mediated inhibition. In this case, compounds and IRE1a were prepared and combined as discussed above, with the addition of ATP up to 1 mM final concentration. […] Plates were then read over 30 minutes in kinetic mode (485/515 nm).

[2] = Microsome stability assay; format: in vitro ADME; settings: liver microsomes, 1 μM, 37° C., 0.5 mg/ml microsomal protein
Procedure: The formic acid salt of a compound from Table 1 is tested under the microsome stability assay outlined below. Test compounds are incubated at 37° C. with liver microsomes (pooled from multiple donors) at 1 μM in the presence of a NADPH regenerating system at 0.5 mg/ml microsomal protein. Positive controls included Testosterone (3A4 substrate), Propafenone (2D6) and Diclofenac (2C9), which are incubated with microsomes in the presence of an NADPH regenerating system. At time points (0, 5, 10, 20, 30 and 60 minutes), samples are removed and immediately mixed with cold acetonitrile containing internal standard (IS). Test compounds incubated with microsomes without the NADPH regenerating system for 60 min is also included. A single point for each test condition (n=1) is obtained, and samples are analyzed by LC/MS/MS. Disappearance of the test compound is assessed based on peak area ratios of analyte/IS (no standard curve). […] Compound 1 was tested and had 45% or more of parent compound remaining after a 60 minute incubation.

IRE1a [3] = target: T1, IRE1a; assay: IRE1a Endoribonuclease Nanoluciferase Assay (XBP1 luciferase reporter in 293T cells); format: cell-based; design: endogenous in cells; host or cells: 293T cells; settings: 293T cells transfected with XBP1 luciferase reporter plasmid, ER stressors +/- inhibitors
Procedure: Compounds disclosed herein were assessed for disruption of IRE1 signaling using a IRE1a Endoribonuclease Nanoluciferase Assay. Briefly, 2.5×10^6 293T cells were seeded in a 10 cm^2 tissue culture plate. About 24 hours later, the cells were transfected with Effectene. In a 15 mL tube, the following was added: 2 ug XBP1 luciferase reporter plasmid (PGK-Luc2-P2A-XBP1u-Nanoluciferase-PEST); 300 ul EC buffer; and 16 ul Enhancer, followed by incubation at room temp for 5 minutes. Next, 60 ul Effectene (Qiagen 301427) was added, followed by incubation at room temperature for 10 minutes. 2.6 mL cDMEM media was added. Old media was aspirated from the cells, followed by addition of 7 mL fresh media. Full transfection mixture was added dropwise to cells. Cells were incubated for 6 hours, followed by trypsinization, centrifugation and resuspension in 11 mL fresh cDMEM media. 100 uL of cells were plated per a well in a 96 well plate. A day later, ER stressors of choice +/− inhibitors were added. To harvest, media was aspirated from cells completely, then 50 uL 1× passive lysis buffer (Promega: E1941) was added per well and put on shaker (300 rpm) for 30 minutes at room temperature. […] Plates were read on luminometer, 1000 ms integration time per well. […] Plates were read on luminometer, 1000 ms second integration time per well. […]

T1 sequence (O75460 19-977): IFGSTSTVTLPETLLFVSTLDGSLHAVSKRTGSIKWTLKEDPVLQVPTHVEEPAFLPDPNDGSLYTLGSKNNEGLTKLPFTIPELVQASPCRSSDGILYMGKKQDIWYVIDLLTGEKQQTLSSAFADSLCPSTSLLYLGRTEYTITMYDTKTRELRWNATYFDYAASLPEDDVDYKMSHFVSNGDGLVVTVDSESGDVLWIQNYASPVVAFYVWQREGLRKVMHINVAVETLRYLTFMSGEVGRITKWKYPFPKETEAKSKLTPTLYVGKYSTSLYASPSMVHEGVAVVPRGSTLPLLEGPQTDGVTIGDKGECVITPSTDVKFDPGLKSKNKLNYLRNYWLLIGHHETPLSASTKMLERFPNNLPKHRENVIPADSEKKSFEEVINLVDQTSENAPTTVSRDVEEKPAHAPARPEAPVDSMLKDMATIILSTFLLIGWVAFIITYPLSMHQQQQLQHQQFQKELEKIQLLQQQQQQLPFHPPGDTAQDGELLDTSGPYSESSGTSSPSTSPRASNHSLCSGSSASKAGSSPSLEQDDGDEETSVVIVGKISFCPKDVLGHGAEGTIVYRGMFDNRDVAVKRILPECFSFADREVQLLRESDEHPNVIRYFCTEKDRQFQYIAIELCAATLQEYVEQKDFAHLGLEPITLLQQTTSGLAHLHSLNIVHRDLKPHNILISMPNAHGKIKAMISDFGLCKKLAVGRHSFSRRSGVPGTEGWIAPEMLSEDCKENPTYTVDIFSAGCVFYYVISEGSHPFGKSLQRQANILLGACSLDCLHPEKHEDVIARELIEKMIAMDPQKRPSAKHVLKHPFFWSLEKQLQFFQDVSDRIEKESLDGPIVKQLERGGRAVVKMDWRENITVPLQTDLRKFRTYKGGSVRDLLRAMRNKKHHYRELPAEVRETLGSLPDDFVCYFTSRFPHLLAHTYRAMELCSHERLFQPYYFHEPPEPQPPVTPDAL

IC50 (IRE1a [1]) | parent compound remaining after a 60 minute incubation [2] | EC50 (IRE1a [3]) | Structure (SMILES)
≤ 5 nM | ≥ 45% | ≤ 5 nM | CCc1cc(-c2ccc(NS(=O)(=O)c3cnccc3Cl)nc2C)cc2cnc(N[C@H]3CC[C@H](N(C)C)CC3)nc12 [Compound 1, 4-chloro-N-(5-(2-(((1r,4r)-4-(dimethylamino)cyclohexyl)-amino)-8-ethylquinazolin-6-yl)-6-methylpyridin-2-yl)-pyridine-3-sulfonamide]
≤ 5 nM | – | ≤ 5 nM | CCc1cc(-c2ccc(NS(=O)(=O)c3ccccc3Cl)nc2C)nc2cnc(N[C@H]3CC[C@H](N(C)C)CC3)nc12 [Compound 2, 2-chloro-N-(5-(2-(((1r,4r)-4-(dimethylamino)cyclohexyl)-amino)-8-ethylpyrido[3,2-d]-pyrimidin-6-yl)-6-methyl-pyridin-2-yl)benzenesulfon-amide]
